Experimental findings from ChEMBL document CHEMBL1144350, “Synthesis and evaluation of imidazolylmethylenetetrahydronaphthalenes and imidazolylmethyleneindanes: potent inhibitors of aldosterone synthase” (J Med Chem, 2005) are described below.

In data set [1] the target is T1, Cytochrome P450 11B1, mitochondrial (Bos taurus, UniProt P15150).
T1 sequence (P15150 whole entry): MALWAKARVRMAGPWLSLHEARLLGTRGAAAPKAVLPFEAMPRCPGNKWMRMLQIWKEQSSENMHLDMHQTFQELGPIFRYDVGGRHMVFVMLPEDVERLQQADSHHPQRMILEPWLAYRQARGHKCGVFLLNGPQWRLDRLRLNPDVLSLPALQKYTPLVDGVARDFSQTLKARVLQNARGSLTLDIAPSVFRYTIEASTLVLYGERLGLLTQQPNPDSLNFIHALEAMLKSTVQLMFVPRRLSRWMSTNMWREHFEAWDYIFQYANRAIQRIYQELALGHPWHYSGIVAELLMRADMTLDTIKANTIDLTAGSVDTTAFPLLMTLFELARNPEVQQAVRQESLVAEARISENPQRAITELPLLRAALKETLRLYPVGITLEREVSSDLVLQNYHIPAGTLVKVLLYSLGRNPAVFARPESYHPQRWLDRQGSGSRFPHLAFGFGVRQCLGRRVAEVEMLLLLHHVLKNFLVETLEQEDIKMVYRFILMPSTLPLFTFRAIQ
As to the kind of experiment: In vitro inhibition against bovine cytochrome P450 11B with 200 uM corticosterone. Conditions: cyp11b.

Data set [2] addresses T2, Steroid 17-alpha-hydroxylase/17,20 lyase (Homo sapiens, UniProt P05093).
T2 sequence (P05093 whole entry): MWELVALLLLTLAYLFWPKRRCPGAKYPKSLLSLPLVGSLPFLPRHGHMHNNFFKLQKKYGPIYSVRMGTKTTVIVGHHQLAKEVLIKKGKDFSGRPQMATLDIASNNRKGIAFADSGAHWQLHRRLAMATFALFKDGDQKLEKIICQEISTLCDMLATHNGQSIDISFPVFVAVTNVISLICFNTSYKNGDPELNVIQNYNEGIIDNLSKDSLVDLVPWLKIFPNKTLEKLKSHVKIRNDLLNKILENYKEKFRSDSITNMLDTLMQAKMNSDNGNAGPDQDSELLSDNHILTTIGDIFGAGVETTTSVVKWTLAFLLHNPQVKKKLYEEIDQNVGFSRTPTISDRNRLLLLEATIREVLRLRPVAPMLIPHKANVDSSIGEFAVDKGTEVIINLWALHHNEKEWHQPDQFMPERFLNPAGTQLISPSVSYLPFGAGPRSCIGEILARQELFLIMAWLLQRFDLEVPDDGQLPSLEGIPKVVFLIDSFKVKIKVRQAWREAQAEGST
As to the kind of experiment: In vitro inhibition against human […] cytochrome P450 17 expressed in Escherichia coli with 2.5 uM progesterone.

The target of data set [3] is T3, Cytochrome P450 11B2, mitochondrial (Homo sapiens, UniProt P19099).
T3 sequence (P19099 whole entry): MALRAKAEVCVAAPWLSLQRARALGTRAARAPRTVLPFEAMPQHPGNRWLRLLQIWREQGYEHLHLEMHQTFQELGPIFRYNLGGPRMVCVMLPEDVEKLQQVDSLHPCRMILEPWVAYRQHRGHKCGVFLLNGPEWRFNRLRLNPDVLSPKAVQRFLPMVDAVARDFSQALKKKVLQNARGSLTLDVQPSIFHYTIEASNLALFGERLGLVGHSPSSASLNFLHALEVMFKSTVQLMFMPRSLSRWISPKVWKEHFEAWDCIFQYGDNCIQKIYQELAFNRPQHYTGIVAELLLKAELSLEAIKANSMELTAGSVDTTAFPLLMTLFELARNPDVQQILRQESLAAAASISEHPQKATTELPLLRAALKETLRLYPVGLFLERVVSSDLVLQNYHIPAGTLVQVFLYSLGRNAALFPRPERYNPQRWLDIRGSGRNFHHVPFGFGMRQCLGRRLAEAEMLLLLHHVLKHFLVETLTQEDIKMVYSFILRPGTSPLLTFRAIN
In words: In vitro inhibition of [14C]deoxycorticosterone binding to human cytochrome P450 11B2 expressed in hamster V79 MZh cells. In kind it is cell-based.

In data set [4] the target is T3, Cytochrome P450 11B2, mitochondrial. As to the kind of experiment: In vitro inhibition of human cytochrome P450 11B2 expressed in Schizosaccharomyces pombe with 500 nM deoxy-corticosterone.
The target of data set [5] is T4, Cytochrome P450 11B1, mitochondrial (Homo sapiens, UniProt P15538).
T4 sequence (P15538 whole entry): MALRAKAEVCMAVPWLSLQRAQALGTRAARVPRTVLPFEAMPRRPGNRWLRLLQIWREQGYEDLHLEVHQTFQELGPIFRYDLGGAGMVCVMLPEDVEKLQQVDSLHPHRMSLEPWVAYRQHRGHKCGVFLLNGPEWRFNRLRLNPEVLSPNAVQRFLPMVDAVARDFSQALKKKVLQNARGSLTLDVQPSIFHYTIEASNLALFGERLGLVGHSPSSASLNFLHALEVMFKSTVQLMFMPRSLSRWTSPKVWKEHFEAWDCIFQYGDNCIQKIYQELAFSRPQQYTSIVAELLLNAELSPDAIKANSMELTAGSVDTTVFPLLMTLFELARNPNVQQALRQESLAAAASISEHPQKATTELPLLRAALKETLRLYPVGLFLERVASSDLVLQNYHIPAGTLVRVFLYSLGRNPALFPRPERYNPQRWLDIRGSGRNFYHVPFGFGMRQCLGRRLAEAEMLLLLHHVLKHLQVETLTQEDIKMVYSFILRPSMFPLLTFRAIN
In words: In vitro inhibition of [14C]deoxycorticosterone binding to human cytochrome P450 11B1 expressed in hamster V79 MZh cells. The data set is classed as cell-based.

Data set [6] deals with T5, Aromatase (Homo sapiens, UniProt P11511).
T5 sequence (P11511 whole entry): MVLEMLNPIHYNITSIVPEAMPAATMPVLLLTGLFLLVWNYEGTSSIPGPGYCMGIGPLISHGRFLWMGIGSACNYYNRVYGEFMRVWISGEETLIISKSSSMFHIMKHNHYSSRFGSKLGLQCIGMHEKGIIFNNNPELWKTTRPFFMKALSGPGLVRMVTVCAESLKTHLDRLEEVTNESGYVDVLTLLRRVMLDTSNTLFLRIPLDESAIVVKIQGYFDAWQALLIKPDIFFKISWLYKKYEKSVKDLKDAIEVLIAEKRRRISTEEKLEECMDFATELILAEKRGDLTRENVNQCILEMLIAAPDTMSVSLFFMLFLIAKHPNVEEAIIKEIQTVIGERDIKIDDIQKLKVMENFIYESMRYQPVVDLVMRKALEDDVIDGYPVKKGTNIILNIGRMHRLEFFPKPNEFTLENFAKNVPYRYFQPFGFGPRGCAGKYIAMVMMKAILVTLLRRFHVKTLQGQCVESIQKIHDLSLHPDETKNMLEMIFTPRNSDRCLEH
Description: In vitro inhibitory concentration against human placental cytochrome P450 19 with 2.5 uM testosterone

For `Brc1ccc2c(c1)CC/C2=C/c1c[nH]cn1`, the Inhibition (usually the relative decrease from the control value, in per cent) in data set [1] worked out at 88%; in data set [2], 15%; in data set [4], 76%. Moreover, the IC50 (as a rule, the concentration needed to halve the response being measured) in data set [3] came out at 10.3 nM.
In the case of `N#Cc1ccc2c(c1)CC/C2=C/c1ncc[nH]1`, the IC50 came to 12.3 nM in data set [5], 35.7 nM in data set [3] and 15 nM in data set [6]. For the same molecule, the Inhibition in data set [1] came to 100%; in data set [2], 4%; in data set [4], 65%.
With `Clc1ccc2c(c1)/C(=C/c1c[nH]cn1)CCC2`, the Inhibition was 66% in data set [1], 24% in data set [2] and 48% in data set [4]. Moreover, the IC50 was 47.3 nM in data set [3] and 120 nM in data set [6].
`Clc1ccc2c(c1)CC/C2=C/c1c[nH]cn1`: the Inhibition stood at 87% in data set [1], 26% in data set [2] and 80% in data set [4]. For the same molecule, half-maximal inhibition in data set [6] (IC50) required 39 nM.
Regarding `N#Cc1ccc2c(c1)/C(=C\c1c[nH]cn1)CCC2`, the Inhibition in data set [1] amounted to 97%; in data set [2] it was 3%; in data set [4], 23%. In data set [6], this molecule had a 50% inhibitory concentration (IC50) of 810 nM.
The corresponding values for `N#Cc1ccc2c(c1)/C(=C/c1cnc[nH]1)CCC2` are 62%, 2%, 8% and 970 nM.
For `Fc1ccc2c(c1)CC/C2=C/c1c[nH]cn1`, the Inhibition in data set [1] is 64%; in data set [2], 11%; in data set [4], 58%.
Take `C(=C1\CCCc2ccccc21)/c1c[nH]cn1`: the Inhibition in data set [1] was 95%; in data set [2], 13%; in data set [4] it was 82%. The molecule further returned a concentration for half-maximal inhibition (IC50) in data set [6] of 190 nM.
